{"source": "patent US20060193772A1", "about": "“Drugs for treating cancer” (priority 2003, published 2006)", "system": "multiple myeloma cell line, LP-1 cells", "test": "LP-1 viable cell number (WST-1), doxorubicin and KM 1468 administration methods (Example 3)", "format": "cell-based", "conditions": "1 μmol/L doxorubicin, 1 μg/mL KM 1468, cells only = 100%", "description": "Multiple myeloma cell line, LP-1 cells (DSMZ ACC41) were seeded in a 96-well culture plate in an amount of 100 μL/well (10,000 cells). Doxorubicin and anti-IGF monoclonal antibody […] were added, and the mixture was cultured at 37° C. for 3 days. The addition of doxorubicin and KM 1468 to the medium was conducted by the following three methods.\nMethod 1: Cells were cultured in 150 μL of a medium in which doxorubicin was solely added on day 1, and in 200 μL of a medium in which doxorubicin and KM 1468 were added on days 2 and 3.\nMethod 2: Cells were cultured in 150 μL of a medium in which KM 1468 were solely added on day 1, and in 200 μL of a medium in which doxorubicin and KM 1468 were added on days 2 and 3.\nMethod 3: Cells were cultured in a medium comprising doxorubicin and KM 1468 (an amount of the medium is 150 μL on day 1 and 200 μL each on days 2 and 3) for three days.\nIn all of the foregoing methods, doxorubicin and KM 1468 were added so that the final concentrations of doxorubicin and KM 1468 became 1 μmol/L and 1 μg/mL, respectively.\nAfter the culturing, cell proliferation reagent WST-1 (manufactured by Roche) was added in an amount of 20 μL/well, and the mixture was cultured at 37° C. for from 2 to 3 hours. OD450 was measured with microplate reader M-SPmax 250 (manufactured by Molecular Devices). The number of viable cells after the treatment with the agent was expressed as a relative value when OD450 in which cells were solely added was regarded as 100%.", "data": [{"molecule": "COc1cccc2c1C(=O)c1c(O)c3c(c(O)c1C2=O)C[C@@](O)(C(=O)CO)C[C@@H]3O[C@H]1C[C@H](N)[C@H](O)[C@H](C)O1", "note": "[Doxorubicin]", "values": [{"measurement": "Relative value of cell number", "setting": "Method 1 group: doxorubicin on day 1, doxorubicin and KM 1468 on days 2 and 3", "result": 40, "unit": "%"}, {"measurement": "Relative value of cell number", "setting": "Method 2 group: KM 1468 on day 1, doxorubicin and KM 1468 on days 2 and 3", "result": 57, "unit": "%"}, {"measurement": "Relative value of cell number", "setting": "Method 3 group: doxorubicin and KM 1468 for three days", "result": 44, "unit": "%"}]}]}
